# Source: PubChem BioAssay AID179 (DTP/NCI, 2004)
# Where “and” joins values, the source holds several entries; their conditions need not be identical. Equal values may be shown once. Calls of active or inactive are those of the source.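 How the source made its calls: active means compounds giving half or more protection of infected cells from virus-caused growth loss, again on retest; inactive means the rest.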
# System: CEM cells HIV-1 protection, formazan growth assay
# Experiment: NCI AIDS Antiviral Assay
# Conditions: for IC50: measured here: growth of uninfected CEM cells
# Method in brief: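 Protection of CEM cells against HIV-1 was scored from cell growth (soluble formazan) across five concentrations, with parallel uninfected cells. Lack of protection may reflect toxicity.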
SMILES,EC50 [µM],IC50,outcome
O=C(NCCc1ccccc1)c1cc2ccc(O)c(O)c2cn1,> 145,4.37 µM and 2.04 µM,
C[N+](C)(CCCCCC[N+](C)(C)C1c2ccccc2-c2ccccc21)C1c2ccccc2-c2ccccc21,> 200,182 µM,
CCN1C[C@]2(C)CC[C@H](O)C34C1C(C[C@@H]32)[C@@]1(O)CC[C@H]2C[C@@H]4[C@@H]1[C@H]2O,,,inactive
COc1ccc2oc(=O)c3c(c2c1C)OC(C)(C)C=C3,> 200,> 100 µM,
COc1ccc(NC(=O)C2=C(SC)C(C#N)C(=O)N=C2N)cc1 (stereo unspecified),> 200,44.7 µM,
CC(=O)c1c(O)ccc(O)c1-n1nc(C)c([N+](=O)[O-])c1C,> 224,> 224 µM,
O=C(/C=C/c1ccc(Cl)c(Cl)c1)C1CCC(Cl)CC1 (stereo unspecified),> 6.31,> 6.31 µM,
CCNC(=O)C1CCCN1C(=O)C(CCCN=C(N)N)NC(=O)C(CC(C)C)NC(=O)C(Cc1c[nH]c2ccccc12)NC(=O)C(Cc1ccc(O)cc1)NC(=O)C(CO)NC(=O)C(Cc1c[nH]c2ccccc12)NC(=O)C(Cc1cnc[nH]1)NC(=O)C1CCC(=O)N1 (stereo unspecified),> 178,> 178 µM,
Cn1nc(-c2ccc3c(c2)OCO3)[n+]([O-])c2c(=O)n(C)c(=O)nc1-2,> 200,0.38 µM,
O=C(NCCCCCCCCCCCCNC(=O)c1cnc2ccccc2n1)c1cnc2ccccc2n1,> 4.9,> 4.9 µM,
NS(=O)(=O)c1nnc(NS(=O)(=O)c2cccc3cccnc23)s1,> 200,> 200 µM,
CCCN(C)C(=O)COc1cc2c(O)c3c(O)c(C)c4c(c13)C(=O)C(C)(O/C=C/C(OC)C(C)C(OC(C)=O)C(C)C(O)C(C)C(O)C(C)/C=C/C=C(\C)C(=O)N2)O4 (stereo unspecified),> 200,18.6 µM,
CC[C@]1(O)C[C@H]2CN(CCc3c([nH]c4ccccc34)[C@@](C(=O)OC)(c3cc4c(cc3OC)N(C=O)[C@H]3[C@@](O)(C(=O)OC)[C@H](OC(C)=O)[C@]5(CC)C=CCN6CC[C@]43[C@@H]65)C2)C1,> 0.0302,0.000525 µM,
CC(=O)Nc1ccc(/C=C/C(=O)c2sc(-c3cccnc3)nc2C)cc1,> 51.3,> 51.3 µM,
CO/C(N)=C(\C#N)N=Cc1cccs1,> 200,117 µM,
[Cl][Ho]([Cl])[Cl],> 162,> 162 µM,
COc1ccc(O[C@H](CO)C[C@@H]2COC(C)(C)O2)cc1,> 200,> 200 µM,
COC1OC(CO)C(O)C1N (stereo unspecified),,,inactive
CC(=O)NC(=O)CC(=O)c1ccccc1,> 631,> 631 µM,
Cn1nc(-c2ccccc2)c(C(=O)/C=C/c2ccc(F)cc2)c(N2CCCC2)c1=O,26.3,36.3 µM,
CC(=O)N1C(=O)C(=O)c2ccccc21,> 200,> 200 µM,
COc1cccc(/C=C/C(=O)c2ccccc2)c1,> 57.5,11 µM,

SMILES,EC50 [µM],IC50,outcome
N#Cc1c(=O)c2cccnc2n2c1[nH]c1ccccc12,> 200,> 200 µM,
Cn1c(=O)c2/c(n(C)c1=O)=N\C=c1\c(=O)n(C)c(=O)n(C)\c1=N\C=2,> 182,> 182 µM,
COC(=O)Nc1cn2nc(N)sc2n1,> 200,> 200 µM,
O=C(Nc1ccc(C2=NCCN2)cc1)c1cncc(C(=O)Nc2ccc(C3=NCCN3)cc2)c1,9.77,132 µM,
COc1ccccc1[B-]12OCC[N+]1(CNC(=O)C1=C(O)C3(O)C(=O)C4=C(O)c5c(O)cccc5C(C)(O)C4CC3C(N(C)C)C1=O)CCO2 (stereo unspecified),> 27.5,> 27.5 µM,
CCOC(=O)CCc1ccc(NC(=O)/C=C/c2ccc([N+](=O)[O-])o2)cc1,> 200,0.372 µM,
S=C1SC2(CCCC2)NC2=C1CCC2,> 126,> 126 µM,
O=c1onc2n1-c1cc(Cl)ccc1C(=S)N1CSCC21 (stereo unspecified),> 200,105 µM,
CCCC(=O)[O-].CCCC(=O)[O-].N.N.N.N.[Co+3].[O-][Cl+3]([O-])([O-])[O-],,,inactive
Cc1ccc(Nc2cc(=O)[nH]c(=O)[nH]2)cc1CS,> 200,93.3 µM,
Cc1ccc(O)c(C(=O)CCCC(=O)c2cc(C)ccc2O)c1,> 12,> 12 µM,
COc1ccc(Sc2ccccc2[N+](=O)[O-])cc1,,,inactive
CC(=O)N/N=C/c1ccc(N(C)C)cc1,> 200,> 200 µM,
COC(=O)c1cc(C(=CCCCCO)c2cc(Cl)c(OC)c(C(=O)OC)c2)cc(Cl)c1OC,> 200,23.4 µM,
O=c1c2cccnc2ncn1CCCN1CCCCC1,,,inactive
COc1ccc(/C=C2\CCS(=O)(=O)c3ccccc3C2=O)cc1OC,> 100,11.2 µM,
COc1cc(C(=O)O)ccc1O,> 200,> 200 µM,
O=C1CCC(=O)N1C(c1ccccc1)(c1ccccc1)c1ccccc1,> 200,> 200 µM,
CCCCOP(=O)(OCCCC)OP(=O)(OCCCC)OCCCC,> 200,> 200 µM,
CSC12c3cc(C)n(-c4ccc([N+](=O)[O-])cc4)c3CC(C)(C)CN1C(=O)C2Oc1ccccc1 (stereo unspecified),> 200,49 µM,
Cc1cn([C@H]2C[C@@H](N3C(=O)c4ccccc4C3=O)[C@@H](CO[Si](C)(C)C(C)(C)C)O2)c(=O)[nH]c1=O,> 200,151 µM,
